# Structures can show the parent of a compound that is named as a salt. Where two headings read alike, the source gives them in different places.
# Legend:
# ICR male mice = assay: Hypobaric hypoxia model, survival time of mice at 200 mmHg; assay type: in vivo; conditions: control = 100
# Text: The model used is analogous to the one described by M. Nakanishi et al., Life Sci. 13: 467-476 (1973); and by Y'Oshiro et al., J. Med. Chem. 34: 2014-2023 (1991). A group of 4 ICR male mice each weighing 20-25 g were placed in a 2.5 L glass chamber (A) at atmospheric pressure. Chamber A is connected to a 12 L chamber (B) through a valve which is initially […] closed. The air in chamber B was evacuated to a pressure of 100 mmHg. The valve between the two chambers was opened rapidly, whereupon the pressure in chamber A fell within 14 seconds to 200 mmHg. The survival time of the mice in chamber A was determined to a maximum hypobaric exposure of 15 minutes. Effect of drug pretreatment on survival is calculated as the percent of the survivai time of the drug-treated group as compared to saline-injected or vehicle-injected group. Control groups were tested twice, before and after each experiment and consisted of 12 to 16 mice, 4 per group. Each tested group always consisted of 4 mice in order to ensure a constant residual volume of oxygen in all tests. […] The effect of each dose of the test drug was determined in duplicate, using a total of 8 mice, 4 per group. All drugs were administered i.p. one hour prior to hypoxia. Positive reference drugs were sodium pentobarbital at a dose of 40 mg/kg, or diazepam at a dose of 10 mg.kg, given 0.5 hour prior to hypoxia.
# MAO-B [1] = target: MAO-B (Rattus norvegicus, UniProt P19643); assay: in vivo; conditions: for activity for inhibition of MAO-B: in words; for ED50: rat
# Sequence of MAO-B (Rattus norvegicus, UniProt P19643) (P19643 whole entry): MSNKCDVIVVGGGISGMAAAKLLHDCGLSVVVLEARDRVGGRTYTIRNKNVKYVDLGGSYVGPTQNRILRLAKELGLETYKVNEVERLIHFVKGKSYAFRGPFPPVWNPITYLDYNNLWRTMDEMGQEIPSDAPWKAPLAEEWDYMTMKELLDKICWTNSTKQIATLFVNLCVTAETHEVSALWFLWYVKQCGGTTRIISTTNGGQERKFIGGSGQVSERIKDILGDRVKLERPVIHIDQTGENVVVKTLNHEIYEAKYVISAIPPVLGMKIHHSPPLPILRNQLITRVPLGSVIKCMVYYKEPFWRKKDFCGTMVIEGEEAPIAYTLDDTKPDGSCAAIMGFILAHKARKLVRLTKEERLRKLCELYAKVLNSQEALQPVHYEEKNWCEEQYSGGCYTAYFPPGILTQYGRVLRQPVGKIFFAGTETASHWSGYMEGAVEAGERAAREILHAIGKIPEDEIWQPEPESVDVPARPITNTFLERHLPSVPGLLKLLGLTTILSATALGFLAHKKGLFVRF
# Protocol: (§1) Rats (male Sprague-Dawley-derived) weighing 250±20 g were treated with one of the enantionmers or the racemic form of PAI by intraperitoneal injection (ip) or oral gavage (po), and decapitated 1h or 2h later respectively. Groups of three rates were used for each dose level of substance, and MAO activity determined in brain and liver using the general technique described in Example 19 of U.S. Pat. No. 5,387,612. The amount of protein in each incubation was determined using the Follin-Lowrymethod, and enzyme activity calculated as nmol of substrate metabolized per hour of incubation for each mg of protein. Activity of MAO in tissues from animals treated with the enantiomers or the racemic form of PAI was expressed as a percentage of the enzyme activity in a group of control animals administered vehicle (water for oral administration, 0.9% saline for ip injection).
# MAO-A = MAO-A (Rattus norvegicus, UniProt P21396); assay: in vivo; conditions: for ED50: rat, read-out: IC-50 for Inhibition of MAO-A
# Sequence of MAO-A (P21396 whole entry): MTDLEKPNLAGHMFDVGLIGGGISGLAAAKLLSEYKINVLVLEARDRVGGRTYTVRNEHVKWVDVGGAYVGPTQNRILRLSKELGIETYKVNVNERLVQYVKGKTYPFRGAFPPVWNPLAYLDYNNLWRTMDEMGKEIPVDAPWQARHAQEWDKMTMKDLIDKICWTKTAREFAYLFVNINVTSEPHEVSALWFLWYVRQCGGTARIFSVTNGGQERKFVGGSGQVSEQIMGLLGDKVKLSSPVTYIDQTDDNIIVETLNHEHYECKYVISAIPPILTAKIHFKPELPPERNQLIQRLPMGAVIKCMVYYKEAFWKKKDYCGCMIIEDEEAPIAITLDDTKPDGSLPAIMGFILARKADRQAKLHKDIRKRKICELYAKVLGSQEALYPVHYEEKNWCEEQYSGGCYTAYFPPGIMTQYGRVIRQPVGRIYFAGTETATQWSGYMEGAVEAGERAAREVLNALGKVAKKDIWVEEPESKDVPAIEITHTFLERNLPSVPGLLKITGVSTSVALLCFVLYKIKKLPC
# Protocol: as §1
# [2] = test system: pressor response to catecholamines in the cat; assay: Pressor response to catecholamines in the anesthetized cat before and after S(-)PAI; assay type: in vivo; conditions: before S(-)PAI
# Protocol: Cats were anesthetized with i.v. nembutal 25 mg/kg. Anesthesia was maintained by additional injections of nembutal, 5 mg/kg, as needed. The femoral artery was cannulated and connected to a Statham pressure transducer for blood pressure recordings on a Grass multichannel Polygraph. The femoral vein was cannulated for i.v. injection of drugs.
# rat cerebellum cells = conditions: in words; cited from earlier work
# rat optic nerve = conditions: in words; cited from earlier work
# [3] = test system: male Wistar rats after middle cerebral artery occlusion (MCA-O)
# Text: In order to expose the left middle cerebral artery, a cut was made in the temporal muscle. The tip of the coronoid process of mandible was excised as well and removed with a fine rongeur. Craniectomy was made with a dental drill at the junction between the median wall and the roof of the inferotemporal fossa.
# The dura matter was opened carefully using a 27 gauge needle. […] Following this, the temporalis muscle was sutured and laid over the craniectomy site. The skin was closed with a running 3-0 silk suture. […] The volume of brain tissue incurring damage following ischemia was determined.
# MAO-B [4] = conditions: in vitro; cited from earlier work
# MAO-A/MAO-B = conditions: in vitro; cited from earlier work
# [5] = test system: noradrenaline depletion in rodents; conditions: in words; cited from earlier work
# noradrenaline uptake = conditions: in words; cited from earlier work
# nerve cell death = conditions: sub-inhibitory levels; in words; cited from earlier work
# [6] = test system: reserpine induced ptosis in rats; assay: Reserpine-induced ptosis in rats; assay type: in vivo; conditions: reserpine 5 mg/kg i.p., 0-4 scale, 4 = eyes completely open, saline 0.86
# Text: Reserpine-induced ptosis and its reversal test. Reserpine causes depletion of catecholamine stores, especially norepinephrine. This effect in the live animal is manifested among other things, in ptosis. Drugs that can prevent or inhibit reserpine-induced ptosis act either directly as noradrenergic agonists, or indirectly by decreasing or preventing the metabolic elimination of endogenous norepinephrine. MAO inhibitors belong to the latter category.
# human subjects = conditions: cited from earlier work
# [7] = 10 mg/kg i.p., one hour prior to hypoxia
# [8] = 50 mg/kg i.p., one hour prior to hypoxia
# [9] = 100 mg/kg i.p., one hour prior to hypoxia
# [10] = po liver, 2 h after oral gavage
structure (smiles),measurement,setting,value
CN1C(=O)CN=C(c2ccccc2)c2cc(Cl)ccc21 [Diazepam],% protection ± SD relative to control (relative survival time),"ICR male mice; 10 mg/kg i.p., 0.5 hour prior to hypoxia",430 ± 59%
"C#CCN[C@H]1CCc2ccccc21 [S(-)PAI mesylate, S-(-)-N-Propargyl-1-aminoindan mesylate]",% protection ± SD relative to control (relative survival time),ICR male mice; [7],84 ± 47%
same,% protection ± SD relative to control (relative survival time),ICR male mice; [8],406 ± 247%
same,% protection ± SD relative to control (relative survival time),ICR male mice; [9],390 ± 197%
same,activity for inhibition of MAO-B,MAO-B [1],extremely low activity
same,ED50,"MAO-B [1]; ip, 1 h, read-out: IC-50 for Inhibition of MAO-B, ip brain, 1 h after ip injection",> 10 mg/kg
same,ED50,"MAO-B [1]; ip, 1 h, read-out: IC-50 for Inhibition of MAO-B, ip liver, 1 h after ip injection",> 10 mg/kg
same,ED50,"MAO-B [1]; po, 2 h, read-out: IC-50 for Inhibition of MAO-B, po brain, 2 h after oral gavage",> 10 mg/kg
same,ED50,"MAO-B [1]; po, 2 h, read-out: IC-50 for Inhibition of MAO-B, po liver, 2 h after oral gavage",> 10 mg/kg
same,activity for inhibition of MAO-A,MAO-A; in words,extremely low activity
same,IC-50 for Inhibition of MAO-A,"MAO-A; ip liver, 1 h after ip injection",> 10 mg/kg
same,IC-50 for Inhibition of MAO-A,MAO-A; [10],> 10 mg/kg
same,ED50,"MAO-A; ip, 1 h",> 10 mg/kg
same,ED50,"MAO-A; po, 2 h",> 10 mg/kg
"CNC[C@H](O)c1cccc(O)c1 [phenylephrine, reference compound]",Δ mean arterial pressure before S(-)PAI,[2]; 0.20 μg/kg i.v.,9 mmHg
same,Δ mean arterial pressure before S(-)PAI,[2]; 0.50 μg/kg i.v.,17 mmHg
same,Δ mean arterial pressure before S(-)PAI,[2]; 1.0 μg/kg i.v.,21 mmHg
same,Δ mean arterial pressure before S(-)PAI,[2]; 2.0 μg/kg i.v.,40 mmHg
"C#CCN[C@@H]1CCc2ccccc21 [R(+)PAI mesylate, reference compound]",% protection ± SD relative to control (relative survival time),ICR male mice; [7],116 ± 47%
same,% protection ± SD relative to control (relative survival time),ICR male mice; [8],410 ± 151%
same,% protection ± SD relative to control (relative survival time),ICR male mice; [9],358 ± 179%
same,activity for inhibition of MAO-B,MAO-B [1],selectivity
same,IC-50 for Inhibition of MAO-A,MAO-A; [10],> 5 mg/kg
same,ED50,"MAO-A; po, 2 h",> 5 mg/kg
CCCC(C)C1(CC)C(=O)NC(=O)NC1=O (stereo not shown) [Pentobarbital],% protection ± SD relative to control (relative survival time),"ICR male mice; 20 mg/kg i.p., 0.5 hour prior to hypoxia",325 ± 166%
"C#CCN[C@@H]1CCc2ccccc21 [R(+)PAI, R(+) enantiomer of N-propargyl-1-aminoindan]",prevention of NMDA induced cell death,rat cerebellum cells,"active as a ""neuroprotective agent"""
same,slowing neuronal degeneration after crushing the rat optic nerve,rat optic nerve,slowing neuronal degeneration
same,improvement in neurological score severity,[3],~20%
same,activity as inhibitor of MAO-B relative to S(-)PAI,MAO-B [4],"~7,000 times more active"
same,selectivity for MAO-B than MAO-A,MAO-A/MAO-B,more than 29 times more selective
C#CCN(C)[C@@H](C)Cc1ccccc1 [S(+) deprenyl],neuroprotective activity (percent restoration of noradrenaline after DSP-4),[5],"far lower ""neuroprotective activity"" in comparison with R(-) deprenyl"
same,noradrenaline uptake inhibition compared to R(-) deprenyl,noradrenaline uptake,superior noradrenaline uptake inhibitor as compared to R(-) deprenyl
"NC[C@H](O)c1ccc(O)c(O)c1 [norepinephrine, reference compound]",Δ mean arterial pressure before S(-)PAI,[2]; 0.02 μg/kg i.v.,8 mmHg
same,Δ mean arterial pressure before S(-)PAI,[2]; 0.05 μg/kg i.v.,23 mmHg
same,Δ mean arterial pressure before S(-)PAI,[2]; 0.10 μg/kg i.v.,31 mmHg
same,Δ mean arterial pressure before S(-)PAI,[2]; 0.20 μg/kg i.v.,46 mmHg
"NCCc1ccc(O)cc1 [tyramine, reference compound]",Δ mean arterial pressure before S(-)PAI,[2]; 2.0 μg/kg i.v.,11 mmHg
same,Δ mean arterial pressure before S(-)PAI,[2]; 5.0 μg/kg i.v.,19 mmHg
same,Δ mean arterial pressure before S(-)PAI,[2]; 10.0 μg/kg i.v.,26 mmHg
same,Δ mean arterial pressure before S(-)PAI,[2]; 20.0 μg/kg i.v.,42 mmHg
C#CCN(C)[C@H](C)Cc1ccccc1 [R(-)Deprenyl],prevention of nerve cell death,nerve cell death,prevent nerve cell death
same,neuroprotective activity (percent restoration of noradrenaline after DSP-4),[5],"displayed ""neuroprotective activity"""
same,Mean score of reserpine-induced ptosis,[6]; 5 mg/kg i.p.,1.3
same,Mean score of reserpine-induced ptosis,[6]; 10 mg/kg i.p.,3.16
same,dose at which cardiovascular function could be compromised,"human subjects; human subjects, daily dose, recommended dose 10 mg",30 to 40 mg
same,safety factor in clinical practice,human subjects; human,3 to 4
